How the values were obtained:
Assay in all cases: relative viability (nuclei count vs DMSO), 5 days (fraction); higher = more cells survive
QS11 + Linsitinib = compound: C1CC2=C(C1)C=C(C=C2)OC3=NC(=C4C(=N3)N(C=N4)CC5=CC=C(C=C5)C6=CC=CC=C6)N[C@@H](CC7=CC=CC=C7)CO [QS11] + C[C@]1(O)C[C@@H](c2nc(-c3ccc4ccc(-c5ccccc5)nc4c3)c3c(N)nccn32)C1 [Linsitinib] (partner 1 µM)
In short: (§1)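 Lung cancer cell lines in 1536-well plates were dosed by pin tool the day after seeding, either with one drug alone or with a fixed anchor-drug dose plus five library-drug doses (not always all listed) in √10 steps. After 5 days, cells were fixed and their nuclei stained in one step (final 0.05% Triton X-100, 1% formaldehyde, 1 ug/ml Hoechst), then counted on 4× images. Relative viability is the nuclei count in treated wells divided by that in vehicle wells. Values are medians of duplicate plates.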

Darinaparsin + Lapatinib = compound: C[As](C)SC[C@H](NC(=O)CC[C@H](N)C(=O)O)C(=O)NCC(=O)O [Darinaparsin] + CS(=O)(=O)CCNCc1ccc(-c2ccc3ncnc(Nc4ccc(OCc5cccc(F)c5)c(Cl)c4)c3c2)o1 [Lapatinib] (partner 2 µM)
In short: as §1

[1] = compound: C[As](C)SC[C@H](NC(=O)CC[C@H](N)C(=O)O)C(=O)NCC(=O)O [Darinaparsin] + CC(C)C[C@H](NC(=O)[C@H](Cc1ccccc1)NC(=O)c1cnccn1)B(O)O [Bortezomib] (partner 0.002 µM)
In short: as §1

QS11 + Decitabine = compound: C1CC2=C(C1)C=C(C=C2)OC3=NC(=C4C(=N3)N(C=N4)CC5=CC=C(C=C5)C6=CC=CC=C6)N[C@@H](CC7=CC=CC=C7)CO [QS11] + Nc1ncn([C@H]2C[C@H](O)[C@@H](CO)O2)c(=O)n1 [Decitabine] (partner 2 µM)
In short: as §1

IA-LM was tested, and the relative viability (QS11 + Linsitinib; first compound 0.08 µM) was 0.548, the relative viability (QS11 + Linsitinib; first compound 0.253 µM) was 0.417 and the relative viability (QS11 + Linsitinib; first compound 0.8 µM) was 0.29. The relative viability (QS11 + Linsitinib; first compound 2.53 µM) was 0.389, the relative viability (QS11 + Linsitinib; first compound 8 µM) was 0.601 and the relative viability (Darinaparsin + Lapatinib; first compound 0.08 µM) was 1.25. It also gave a relative viability (Darinaparsin + Lapatinib; first compound 0.8 µM) of 0.658, a relative viability (Darinaparsin + Lapatinib; first compound 2.53 µM) of 1.32 and a relative viability (Darinaparsin + Lapatinib; first compound 8 µM) of 1.07. The relative viability ([1]; first compound 0.08 µM) was 0.893, the relative viability ([1]; first compound 0.8 µM) was 1.08 and the relative viability ([1]; first compound 2.53 µM) was 1.32. It also gave a relative viability ([1]; first compound 8 µM) of 1.01.
Calu-6 was tested, and the relative viability (QS11 + Linsitinib; first compound 0.08 µM) was 0.971, the relative viability (QS11 + Linsitinib; first compound 0.253 µM) was 0.936 and the relative viability (QS11 + Linsitinib; first compound 0.8 µM) was 0.762. The relative viability (QS11 + Linsitinib; first compound 2.53 µM) was 0.921, the relative viability (QS11 + Linsitinib; first compound 8 µM) was 1.21 and the relative viability (Darinaparsin + Lapatinib; first compound 0.08 µM) was 1.45. It also gave a relative viability (Darinaparsin + Lapatinib; first compound 0.8 µM) of 1.14, a relative viability (Darinaparsin + Lapatinib; first compound 2.53 µM) of 1.09 and a relative viability (Darinaparsin + Lapatinib; first compound 8 µM) of 1.06. The relative viability ([1]; first compound 0.08 µM) was 1.04, the relative viability ([1]; first compound 0.8 µM) was 0.968 and the relative viability ([1]; first compound 2.53 µM) was 0.949. For the same cell line, the relative viability ([1]; first compound 8 µM) was 0.945.
With NCI-H1648 the relative viability (QS11 + Decitabine; first compound 0.08 µM) was 0.516, the relative viability (QS11 + Decitabine; first compound 0.253 µM) was 0.436 and the relative viability (QS11 + Decitabine; first compound 0.8 µM) was 0.476. The relative viability (QS11 + Decitabine; first compound 2.53 µM) was 0.443 and the relative viability (QS11 + Decitabine; first compound 8 µM) was 0.665.
NCI-H1650 gave a relative viability (Darinaparsin + Lapatinib; first compound 0.08 µM) of 1, a relative viability (Darinaparsin + Lapatinib; first compound 0.8 µM) of 0.764 and a relative viability (Darinaparsin + Lapatinib; first compound 2.53 µM) of 0.779. For the same cell line, the relative viability (Darinaparsin + Lapatinib; first compound 8 µM) was 0.938, the relative viability (QS11 + Decitabine; first compound 0.08 µM) was 0.453 and the relative viability (QS11 + Decitabine; first compound 0.253 µM) was 0.447. It also gave a relative viability (QS11 + Decitabine; first compound 0.8 µM) of 0.296, a relative viability (QS11 + Decitabine; first compound 2.53 µM) of 0.56 and a relative viability (QS11 + Decitabine; first compound 8 µM) of 0.406. It also gave a relative viability ([1]; first compound 0.08 µM) of 0.216, a relative viability ([1]; first compound 0.8 µM) of 0.193 and a relative viability ([1]; first compound 2.53 µM) of 0.193. It also gave a relative viability ([1]; first compound 8 µM) of 0.195.
For NCI-H1703, the relative viability (QS11 + Linsitinib; first compound 0.08 µM) was 1.1, the relative viability (QS11 + Linsitinib; first compound 0.253 µM) was 0.48 and the relative viability (QS11 + Linsitinib; first compound 0.8 µM) was 1.06. For the same cell line, the relative viability (QS11 + Linsitinib; first compound 2.53 µM) was 0.752, the relative viability (QS11 + Linsitinib; first compound 8 µM) was 0.611 and the relative viability (Darinaparsin + Lapatinib; first compound 0.8 µM) was 1.18. For the same cell line, the relative viability (Darinaparsin + Lapatinib; first compound 2.53 µM) was 1.29, the relative viability (Darinaparsin + Lapatinib; first compound 8 µM) was 1.18 and the relative viability ([1]; first compound 0.08 µM) was 0.317. The relative viability ([1]; first compound 0.8 µM) was 0.338, the relative viability ([1]; first compound 2.53 µM) was 0.39 and the relative viability ([1]; first compound 8 µM) was 0.33.
In the case of NCI-H1793, the relative viability (QS11 + Linsitinib; first compound 0.08 µM) is reported as 0.972, the relative viability (QS11 + Linsitinib; first compound 0.253 µM) is reported as 0.877 and the relative viability (QS11 + Linsitinib; first compound 0.8 µM) is reported as 0.939. It also gave a relative viability (QS11 + Linsitinib; first compound 2.53 µM) of 1.19, a relative viability (QS11 + Linsitinib; first compound 8 µM) of 1.04 and a relative viability (Darinaparsin + Lapatinib; first compound 0.08 µM) of 0.675. The relative viability (Darinaparsin + Lapatinib; first compound 0.8 µM) was 0.632, the relative viability (Darinaparsin + Lapatinib; first compound 2.53 µM) was 0.902 and the relative viability (Darinaparsin + Lapatinib; first compound 8 µM) was 0.916. It also gave a relative viability (QS11 + Decitabine; first compound 0.08 µM) of 0.474, a relative viability (QS11 + Decitabine; first compound 0.253 µM) of 0.424 and a relative viability (QS11 + Decitabine; first compound 0.8 µM) of 0.51. It also gave a relative viability (QS11 + Decitabine; first compound 2.53 µM) of 0.477 and a relative viability (QS11 + Decitabine; first compound 8 µM) of 0.453.
For ChaGo-K-1, the relative viability (QS11 + Decitabine; first compound 0.253 µM) was 0.515, the relative viability (QS11 + Decitabine; first compound 0.8 µM) was 0.5 and the relative viability (QS11 + Decitabine; first compound 2.53 µM) was 0.56. For the same cell line, the relative viability (QS11 + Decitabine; first compound 8 µM) was 0.443, the relative viability ([1]; first compound 0.08 µM) was 1.18 and the relative viability ([1]; first compound 0.8 µM) was 1.07. The relative viability ([1]; first compound 2.53 µM) was 1.01 and the relative viability ([1]; first compound 8 µM) was 0.767.
Work on LCLC-103H yielded a relative viability (QS11 + Linsitinib; first compound 0.08 µM) of 1.08, a relative viability (QS11 + Linsitinib; first compound 0.253 µM) of 1.1 and a relative viability (QS11 + Linsitinib; first compound 0.8 µM) of 0.74. For the same cell line, the relative viability (QS11 + Linsitinib; first compound 2.53 µM) was 1.21, the relative viability (QS11 + Linsitinib; first compound 8 µM) was 1.09 and the relative viability (QS11 + Decitabine; first compound 0.08 µM) was 0.701. For the same cell line, the relative viability (QS11 + Decitabine; first compound 0.253 µM) was 0.815, the relative viability (QS11 + Decitabine; first compound 2.53 µM) was 0.756 and the relative viability (QS11 + Decitabine; first compound 8 µM) was 0.711. It also gave a relative viability ([1]; first compound 0.08 µM) of 1.05, a relative viability ([1]; first compound 0.8 µM) of 0.978 and a relative viability ([1]; first compound 2.53 µM) of 1.14. For the same cell line, the relative viability ([1]; first compound 8 µM) was 1.35.
Cell Line NCI-H1563 has a relative viability (QS11 + Linsitinib; first compound 0.08 µM) of 1.16, a relative viability (QS11 + Linsitinib; first compound 0.253 µM) of 1.3 and a relative viability (QS11 + Linsitinib; first compound 0.8 µM) of 1.26. The relative viability (QS11 + Linsitinib; first compound 2.53 µM) was 1.34, the relative viability (QS11 + Linsitinib; first compound 8 µM) was 1.32 and the relative viability (Darinaparsin + Lapatinib; first compound 0.08 µM) was 1.01. The relative viability (Darinaparsin + Lapatinib; first compound 0.8 µM) was 1.02, the relative viability (Darinaparsin + Lapatinib; first compound 2.53 µM) was 0.914 and the relative viability (Darinaparsin + Lapatinib; first compound 8 µM) was 1.14. The relative viability ([1]; first compound 0.08 µM) was 0.831, the relative viability ([1]; first compound 0.8 µM) was 0.862 and the relative viability ([1]; first compound 2.53 µM) was 0.828. It also gave a relative viability ([1]; first compound 8 µM) of 0.93.
Cell Line NCI-H2170 has a relative viability (Darinaparsin + Lapatinib; first compound 0.08 µM) of 0.283, a relative viability (Darinaparsin + Lapatinib; first compound 0.8 µM) of 0.257 and a relative viability (Darinaparsin + Lapatinib; first compound 2.53 µM) of 0.286. It also gave a relative viability (Darinaparsin + Lapatinib; first compound 8 µM) of 0.285, a relative viability (QS11 + Decitabine; first compound 0.08 µM) of 0.487 and a relative viability (QS11 + Decitabine; first compound 0.253 µM) of 0.466. For the same cell line, the relative viability (QS11 + Decitabine; first compound 0.8 µM) was 0.398, the relative viability (QS11 + Decitabine; first compound 2.53 µM) was 0.43 and the relative viability (QS11 + Decitabine; first compound 8 µM) was 0.5.
NCI-H358 showed a relative viability (QS11 + Linsitinib; first compound 0.08 µM) of 0.731, a relative viability (QS11 + Linsitinib; first compound 0.253 µM) of 0.779 and a relative viability (QS11 + Linsitinib; first compound 0.8 µM) of 0.952. It also gave a relative viability (QS11 + Linsitinib; first compound 2.53 µM) of 1.49, a relative viability (QS11 + Linsitinib; first compound 8 µM) of 1.33 and a relative viability (Darinaparsin + Lapatinib; first compound 0.08 µM) of 0.463. For the same cell line, the relative viability (Darinaparsin + Lapatinib; first compound 0.8 µM) was 0.412, the relative viability (Darinaparsin + Lapatinib; first compound 2.53 µM) was 0.422 and the relative viability (Darinaparsin + Lapatinib; first compound 8 µM) was 0.52. For the same cell line, the relative viability (QS11 + Decitabine; first compound 0.08 µM) was 0.213, the relative viability (QS11 + Decitabine; first compound 0.253 µM) was 0.213 and the relative viability (QS11 + Decitabine; first compound 0.8 µM) was 0.227. For the same cell line, the relative viability (QS11 + Decitabine; first compound 2.53 µM) was 0.266 and the relative viability (QS11 + Decitabine; first compound 8 µM) was 0.207.
NCI-H1944 was tested, and the relative viability (QS11 + Linsitinib; first compound 0.08 µM) was 1.18, the relative viability (QS11 + Linsitinib; first compound 0.253 µM) was 1.38 and the relative viability (QS11 + Linsitinib; first compound 2.53 µM) was 1.18. For the same cell line, the relative viability (QS11 + Linsitinib; first compound 8 µM) was 1.26, the relative viability (Darinaparsin + Lapatinib; first compound 0.08 µM) was 0.834 and the relative viability (Darinaparsin + Lapatinib; first compound 0.8 µM) was 0.796. It also gave a relative viability (Darinaparsin + Lapatinib; first compound 2.53 µM) of 0.664, a relative viability (Darinaparsin + Lapatinib; first compound 8 µM) of 0.947 and a relative viability (QS11 + Decitabine; first compound 0.08 µM) of 0.393. For the same cell line, the relative viability (QS11 + Decitabine; first compound 0.253 µM) was 0.421, the relative viability (QS11 + Decitabine; first compound 2.53 µM) was 0.419 and the relative viability (QS11 + Decitabine; first compound 8 µM) was 0.366.
NCI-H2228 gave a relative viability (QS11 + Linsitinib; first compound 0.08 µM) of 0.658, a relative viability (QS11 + Linsitinib; first compound 0.253 µM) of 0.555 and a relative viability (QS11 + Linsitinib; first compound 0.8 µM) of 0.809. It also gave a relative viability (QS11 + Linsitinib; first compound 2.53 µM) of 0.834, a relative viability (QS11 + Linsitinib; first compound 8 µM) of 0.797 and a relative viability (Darinaparsin + Lapatinib; first compound 0.08 µM) of 1.46. The relative viability (Darinaparsin + Lapatinib; first compound 0.8 µM) was 0.869, the relative viability (Darinaparsin + Lapatinib; first compound 2.53 µM) was 0.685 and the relative viability (Darinaparsin + Lapatinib; first compound 8 µM) was 1.22. For the same cell line, the relative viability ([1]; first compound 0.08 µM) was 1.63, the relative viability ([1]; first compound 0.8 µM) was 1.12 and the relative viability ([1]; first compound 2.53 µM) was 0.975. It also gave a relative viability ([1]; first compound 8 µM) of 1.13.

Source: the supplement of paper PMC10307832
